# Reference: US20080241257A1, “Biodegradable Nanoparticles Incorporating Highly Hydrophilic Positively Charged Drugs” (THE BOARD OF TRUSTEES OF THE UNIVERSITY OF ILLINOIS, priority 2003, published 2008)
# System: M. tuberculosis Erdman
# Assay: M. tuberculosis chronic infection mouse model, CFU in the lungs
# Type: in vivo, BALB/c mice
compound,measurement,setting,value
"[H]/N=C(/N)N[C@H]1[C@H](O)[C@@H](O)[C@H](O[C@@H]2O[C@@H](C)[C@](O)(C=O)[C@H]2O[C@@H]2O[C@@H](CO)[C@H](O)[C@@H](O)[C@@H]2NC)[C@@H](N/C(N)=N\[H])[C@@H]1O [SM, streptomycin]",log CFU in the lungs,"100 mg/kg injected subcutaneously (solution in water) daily for 3 weeks, control 6.88",6.13 log CFU
same,reduction in growth of the TB bacilli compared to the control group,"injected subcutaneously, 100 mg/kg daily 3 weeks, p<0.01",one
